# Test results reported in patent publication US8324264B1, “Inhibitors of bacterial biofilms and related methods” (Sequoia Sciences, Inc., priority 2011, dated 2012).
# Legend:
# P. aeruginosa biofilms = assay: Biofilm growth assay (spreading biofilm on semi-solid agar), P. aeruginosa; type: cell-based; details: biofilm growth assay, overnight 37° C., vs negative controls, Tables 1-5; for IC85: Pseudomonas aeruginosa, read-out: P. aeruginosa: concentration that reduces the area of the spreading biofilm by greater than or equal to 85%
# Procedure, shortened: (§1)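 Values are compound concentrations (μg/ml) that cut the spreading-biofilm zone area by ≥85% relative to negative controls after overnight 37 °C growth from 5 μL central inoculum. E. coli plates: LB, 0.6% agar, 0.5% glucose; P. aeruginosa plates: M8 agar plus 0.2% glucose, 100 μM CaCl2, 1 mM MgSO4, 0.5% Casamino acids.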
# E. coli biofilms = assay: Biofilm growth assay (spreading biofilm on semi-solid agar), E. coli; type: cell-based; details: biofilm growth assay, overnight 37° C., vs negative controls, Tables 1-5; for IC85: Escherichia coli, read-out: E. coli: concentration that reduces the area of the spreading biofilm by greater than or equal to 85%
# Procedure, shortened: as §1
SMILES,IC85 (P. aeruginosa biofilms) [µg/mL],IC85 (E. coli biofilms) [µg/mL],P. aeruginosa: concentration that reduces the area of the spreading biofilm by greater than or equal to 85% (P. aeruginosa biofilms) [µg/mL],E. coli: concentration that reduces the area of the spreading biofilm by greater than or equal to 85% (E. coli biofilms) [µg/mL]
"CC1(C)CC[C@]2(C(=O)O)CC[C@]3(C)C(=C(c4cccc(O)c4)CC4[C@@]5(C)Cc6c(n[nH]c6N)C(C)(C)C5CC[C@]43C)C2C1 (stereo partly drawn) [Example 16, (4aS,6aS,6bR,13aR)-12-Amino-15-(3-hydroxyphenyl)-2,2,6a,6b,9,9,13a-heptamethyl-2,3,4,4a,5,6,6a,6b,7,8,8a,9,11,13,13a,13b,14,15b-octadecahydro-1H-chryseno[1,2-f]indazole-4-a-carboxylic acid]",1,2,–,–
"CC1(C)CC[C@]2(C(=O)Nc3nnc(N)s3)CC[C@]3(C)C(=CCC4[C@@]5(C)Cc6c(n[nH]c6N)C(C)(C)C5CC[C@]43C)C2C1 (stereo partly drawn) [Compound 71, (4aS,6aS,6bR,13aR)-12-Amino-N-(5-amino-1,3,4-thiadiazol-2-yl)-2,2,6a,6b,9,9,13a-heptamethyl-2,3,4,4a,5,6,6a,6b,7,8,8a,9,11,13,13a,13b,14,15b-octadecahydro-1H-chryseno[1,2-f]indazole-4-a-carboxamide]",0.5,2,–,–
CC1(C)CC[C@]2(C(=O)O)CC[C@]3(C)C(=CCC4[C@@]5(C)Cc6c(n[nH]c6Br)C(C)(C)C5CC[C@]43C)C2C1 (some centres unmarked) [H],8,> 8,–,–
"CC1(C)CC[C@]2(c3n[nH]c(O)c3CCO)CC[C@]3(C)C(=CCC4[C@@]5(C)Cc6c(n[nH]c6N)C(C)(C)C5CC[C@]43C)C2C1 (stereo partly drawn) [Compound 81, 3-((4aS,6aS,6bR,13aR)-12-Amino-2,2,6a,6b,9,9,13a-heptamethyl-2,3,4,4a,5,6,6a,6b,7,8,8a,9,11,13,13a,13b,14,15b-octadecahydro-1H-chryseno[1,2-f]indazol-4-a-yl)-4-(2-hydroxyethyl)-1H-pyrazol-5-ol]",–,–,0.5,1
"CC1(C)CC[C@]2(C(=O)O)CC[C@]3(C)C(=C(c4ccc(N5CCCC5)nc4)CC4[C@@]5(C)Cc6c(n[nH]c6N)C(C)(C)C5CC[C@]43C)C2C1 (stereo partly drawn) [Example 45, (4aS,6aS,6bR,13aR)-12-Amino-2,2,6a,6b,9,9,13a-heptamethyl-15-(6-(pyrrolidin-1-yl)pyridin-3-yl)-2,3,4,4a,5,6,6a,6b,7,8,8a,9,11,13,13a,13b,14,15b-octadecahydro-1H-chryseno[1,2-f]indazole-4-a-carboxylic acid]",–,–,0.5,1
"CN1CCN(Cc2occc2C2=C3[C@@H]4CC(C)(C)CC[C@]4(C(=O)O)CC[C@@]3(C)[C@]3(C)CC[C@H]4C(C)(C)c5n[nH]c(N)c5C[C@]4(C)C3C2)CC1 (stereo partly drawn) [Example 36, (4aS,6aS,6bR,8aR,13aR,15bS)-12-Amino-2,2,6a,6b,9,9,13a-heptamethyl-15-(2-((4-methylpiperazin-1-yl)methyl)furan-3-yl)-2,3,4,4a,5,6,6a,6b,7,8,8a,9,11,13,13a,13b,14,15b-octadecahydro-1H-chryseno[1,2-f]indazole-4-a-carboxylic acid]",–,–,>1,2
"CC1(C)CC[C@]2(C(=O)O)CC[C@]3(C)C(=C(c4ccc(N5CCOCC5)cc4)CC4[C@@]5(C)Cc6c(n[nH]c6N)C(C)(C)C5CC[C@]43C)C2C1 (stereo partly drawn) [Example 51, (4aS,6aS,6bR,13aR)-12-Amino-2,2,6a,6b,9,9,13a-heptamethyl-15-(4-morpholinophenyl)-2,3,4,4a,5,6,6a,6b,7,8,8a,9,11,13,13a,13b,14,15b-octadecahydro-1H-chryseno[1,2-f]indazole-4-a-carboxylic acid]",–,–,0.5,2
"CCC1=C2[C@@H]3CC(C)(C)CC[C@]3(C(=O)O)CC[C@@]2(C)[C@]2(C)CC[C@H]3C(C)(C)c4n[nH]c(N)c4C[C@]3(C)C2C1 (stereo partly drawn) [Example 14, (4aS,6aS,6bR,8aR,13aR,15bS)-12-Amino-15-ethyl-2,2,6a,6b,9,9,13a-heptamethyl-2,3,4,4a,5,6,6a,6b,7,8,8a,9,11,13,13a,13b,14,15b-octadecahydro-1H-chryseno[1,2-f]indazole-4-a-carboxylic acid]",0.5,2,–,–
"CNCCc1c([C@]23CCC(C)(C)CC2C2=CCC4[C@@]5(C)Cc6c(n[nH]c6N)C(C)(C)C5CC[C@@]4(C)[C@]2(C)CC3)n[nH]c1O (stereo partly drawn) [Compound 86, 3-((4aS,6aS,6bR,13aR)-12-Amino-2,2,6a,6b,9,9,13a-heptamethyl-2,3,4,4a,5,6,6a,6b,7,8,8a,9,11,13,13a,13b,14,15b-octadecahydro-1H-chryseno[1,2-f]indazol-4-a-yl)-4-(2-(methylamino)ethyl)-1H-pyrazol-5-ol]",–,–,0.5,2
"CC1(C)CC[C@]2(C(=O)O)CC[C@]3(C)C(=C(c4cccc(N)c4)CC4[C@@]5(C)Cc6c(n[nH]c6N)C(C)(C)[C@@H]5CC[C@]43C)[C@@H]2C1 (stereo partly drawn) [Example 15, (4aS,6aS,6bR,8aR,13aR,15bS)-12-Amino-15-(3-aminophenyl)-2,2,6a,6b,9,9,13a-heptamethyl-2,3,4,4a,5,6,6a,6b,7,8,8a,9,11,13,13a,13b,14,15b-octadecahydro-1H-chryseno[1,2-f]indazole-4-a-carboxylic acid]",–,–,0.25,1
"Cc1nnc(S)n1NC(=O)[C@]12CCC(C)(C)CC1C1=CCC3[C@@]4(C)Cc5c(n[nH]c5N)C(C)(C)C4CC[C@@]3(C)[C@]1(C)CC2 (stereo partly drawn) [Compound 77, (4aS,6aS,6bR,13aR)-12-Amino-N-(3-mercapto-5-methyl-4H-1,2,4-triazol-4-yl)-2,2,6a,6b,9,9,13a-heptamethyl-2,3,4,4a,5,6,6a,6b,7,8,8a,9,11,13,13a,13b,14,15b-octadecahydro-1H-chryseno[1,2-f]indazole-4-a-carboxamide]",1,2,–,–
"CC1(C)CC[C@]2(C(=O)O)CC[C@]3(C)C(=C(c4ccoc4CN4CCCC4)CC4[C@@]5(C)Cc6c(n[nH]c6N)C(C)(C)C5CC[C@]43C)C2C1 (stereo partly drawn) [Example 37, (4aS,6aS,6bR,13aR)-12-Amino-2,2,6a,6b,9,9,13a-heptamethyl-15-(2-(pyrrolidin-1-ylmethyl)furan-3-yl)-2,3,4,4a,5,6,6a,6b,7,8,8a,9,11,13,13a,13b,14,15b-octadecahydro-1H-chryseno[1,2-f]indazole-4-a-carboxylic acid]",–,–,>1,1
"C[C@H]1[C@H](C)CC[C@]2(C(=O)O)CC[C@]3(C)C(=CCC4[C@@]5(C)Cc6c(n[nH]c6N)C(C)(C)[C@@H]5CC[C@]43C)[C@H]12 (stereo partly drawn) [Example 2, (4aS,6aS,6bR,13aR)-12-Amino-2,2,6a,6b,9,9,13a-heptamethyl-2,3,4,4a,5,6,6a,6b,7,8,8a,9,11,13,13a,13b,14,15b-octadecahydro-1H-chryseno[1,2-f]indazole-4-a-carboxylic acid]",0.5,1,–,–
